In article PMC10897015, “Investigation of anti-nociceptive, anti-inflammatory potential and ADMET studies of pure compounds isolated from Isodon rugosus Wall. ex Benth” (Frontiers in Pharmacology, 2024):
Values joined by “and” are separate entries in the source; they are usually repeats but may differ in a detail not shown here. Equal values may be shown once. Marks after values point to notes of the source that are not given here.

Columns and labels:
mice = assay: Carrageenan-induced paw edema; type: in vivo; settings: for % edema volume inhibition (mean): aspirin 10 mg/kg; for Paw edema percent inhibition, individual values / Paw edema, individual values: single animals
Method: The animals under study were divided into different groups. Prior to the experiment, the animals had only access to water. […] Additionally, the isolated compounds being tested were given 30 min before injecting 0.05 ml of 1% carrageenan into the sub-plantar region of the paw. To measure the volume changes in the paw, a digital plethysmometer was employed. Readings were taken before and after the carrageenan injection at hourly intervals over a total period of 5 h.

Swiss albino mice [1] = assay: Acetic acid-induced writhing test; type: in vivo; settings: for Writhes, individual values: single animals; for % analgesic activity (writhing inhibition) / Mean writhes: oral
Method: An anti-nociceptive assessment was performed on Swiss albino mice of both sexes, sourced from the National Institute of Health, Islamabad, Pakistan. […] Mice of either sex were divided into different groups, with five mice in each group. The test samples were carefully administered orally, with doses of 250, 500, 1000, and 2000 mg/kg.
I. rugosus was evaluated for its analgesic potential through an acetic acid-induced writhing test. Oral administration of the test samples was carried out using specified doses. After 30 min of interval, 10 ml/kg of acetic acid (0.6%) was injected into the mice. Group I served as the control and received 0.5% Tween-80 (3 ml/kg), group II received diclofenac sodium (10 mg/kg), and groups III and IV received test compounds. The count of writhes was recorded between 5 and 30 min, following the i/p injection of acetic acid ([Franzotti et al., 2000]).

5-LOX = target: T1, 5-LOX (Glycine max, UniProt P08170); assay: Lipoxygenase (5-LOX) inhibitory activity; type: biochemical; settings: for inhibition at 62.5 µg/mL: read-out: % inhibition 5-LOX (mean ± SEM), 62.5 µg/ml; for inhibition at 250 µg/mL: read-out: % inhibition 5-LOX (mean ± SEM), 250 µg/ml; for inhibition at 500 µg/mL: read-out: % inhibition 5-LOX (mean ± SEM), 500 µg/ml; for inhibition at 1000 µg/mL: read-out: % inhibition 5-LOX (mean ± SEM), 1000 µg/ml
T1 sequence (P08170 1-839): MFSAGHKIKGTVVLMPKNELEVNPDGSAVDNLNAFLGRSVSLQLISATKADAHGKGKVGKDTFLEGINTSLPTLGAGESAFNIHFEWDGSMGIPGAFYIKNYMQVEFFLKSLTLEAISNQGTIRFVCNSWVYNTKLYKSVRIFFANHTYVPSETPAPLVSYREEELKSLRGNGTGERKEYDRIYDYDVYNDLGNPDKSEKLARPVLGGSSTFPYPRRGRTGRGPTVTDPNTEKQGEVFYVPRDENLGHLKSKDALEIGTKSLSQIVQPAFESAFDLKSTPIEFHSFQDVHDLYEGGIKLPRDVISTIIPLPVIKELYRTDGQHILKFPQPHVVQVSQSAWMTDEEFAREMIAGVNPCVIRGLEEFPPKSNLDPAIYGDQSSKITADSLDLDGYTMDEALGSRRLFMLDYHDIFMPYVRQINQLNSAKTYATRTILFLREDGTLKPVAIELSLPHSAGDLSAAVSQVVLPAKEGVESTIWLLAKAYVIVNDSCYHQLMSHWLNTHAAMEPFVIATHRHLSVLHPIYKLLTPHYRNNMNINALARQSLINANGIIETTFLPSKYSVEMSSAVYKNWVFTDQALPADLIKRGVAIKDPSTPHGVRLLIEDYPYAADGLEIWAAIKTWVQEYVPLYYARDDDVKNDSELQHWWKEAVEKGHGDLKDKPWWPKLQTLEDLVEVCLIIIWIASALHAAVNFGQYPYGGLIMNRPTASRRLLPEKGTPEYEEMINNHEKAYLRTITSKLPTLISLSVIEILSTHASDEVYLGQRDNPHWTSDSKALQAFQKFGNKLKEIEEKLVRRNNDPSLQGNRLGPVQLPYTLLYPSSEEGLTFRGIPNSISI
Method: The enzyme solution with a concentration of 10,000 U/ml was prepared. […] A solution (80 mM) of linoleic acid (substrate) was made. Likewise, a 50 mM phosphate buffer solution with a pH of 6.3 was prepared. The substrate, enzyme, and buffer were combined in equal proportions, each in a 2 ml volume. […] The inhibition percentage was determined by comparing the absorbance of the test samples with that of the positive control.

Swiss albino mice [2] = assay: Hot plate test, involvement of adrenergic receptors; type: in vivo; settings: single animals
Method: The analgesic effects of the isolated compounds were measured using the hot plate method at a monitored temperature of 55 ± 0.2°C. The Swiss albino mice were positioned on the heated surface of the hot plate, and the period from placement to the onset of licking their hind paws or starting jump movements was noted as the response latency (thermal reactions). The test compounds were injected intraperitoneally. […] The animal models were checked for thermal reactions at various time intervals after sample administration.
The outcomes of the positive control and tested compounds were compared in animals pretreated with yohimbine. […] Additionally, clonidine at a dose of 3 μg/kg was intravenously administered. The animals were then subjected to the hot plate method, as reported before.

SMILES: O=C(O)C=Cc1ccc(O)c(O)c1 [Compound 1, 3,4-dihydroxy-cinnamic acid]
- % edema volume inhibition (mean) (mice; 1st hour after carrageenan): 48.042%
- % edema volume inhibition (mean) (mice; 2nd hour after carrageenan): 54.02%
- % edema volume inhibition (mean) (mice; 3rd hour after carrageenan): 54.008%
- % edema volume inhibition (mean) (mice; 4th hour after carrageenan): 56.40 ± 0.42%
- % edema volume inhibition (mean) (mice; 4th hour after carrageenan, listed as Comp 1): 56.094%
- % edema volume inhibition (mean) (mice; 5th hour after carrageenan): 53.076%
- paw edema inhibition (mice; at various intervals): > 50%
- Paw edema percent inhibition, individual values (mice; hour 1, listed as Comp 1): 50.39% and 48.96% and 47.65% and 47.13% and 46.08%
- Paw edema, individual values (mice; hour 1, listed as Comp 1): 0.38 and 0.391 and 0.401 and 0.405 and 0.413
- Paw edema percent inhibition, individual values (mice; hour 2, listed as Comp 1): 53.99% and 52.64% and 55.48% and 52.1% and 55.89%
- Paw edema, individual values (mice; hour 2, listed as Comp 1): 0.34 and 0.35 and 0.329 and 0.354 and 0.326
- Paw edema percent inhibition, individual values (mice; hour 3, listed as Comp 1): 54.46% and 55.39% and 53.53% and 52.73% and 53.93%
- Paw edema, individual values (mice; hour 3, listed as Comp 1): 0.342 and 0.335 and 0.349 and 0.355 and 0.346
- Paw edema percent inhibition, individual values (mice; hour 4, listed as Comp 1): 56.75% and 58.72% and 56.09% and 54.78% and 54.13%
- Paw edema, individual values (mice; hour 4, listed as Comp 1): 0.33 and 0.315 and 0.335 and 0.345 and 0.35
- Paw edema percent inhibition, individual values (mice; hour 5, listed as Comp 1): 54.17% and 56.22% and 50.75% and 53.76% and 50.48%
- Paw edema, individual values (mice; hour 5, listed as Comp 1): 0.335 and 0.32 and 0.36 and 0.338 and 0.362
- Writhes, individual values (Swiss albino mice [1]; 10mg, listed as Comp 1): 60 and 58.9 and 55.1
- Writhes, individual values (Swiss albino mice [1]; 20mg, listed as Comp 1): 50.1 and 48.2 and 49.71
- Writhes, individual values (Swiss albino mice [1]; 25mg, listed as Comp 1): 45.64 and 46.56 and 47.8
- Writhes, individual values (Swiss albino mice [1]; 50mg, listed as Comp 1): 22.1 and 23.29 and 24.51
- % analgesic activity (writhing inhibition) (Swiss albino mice [1]; dose 10 mg/kg): 05.10% and 05.10^ns %
- % analgesic activity (writhing inhibition) (Swiss albino mice [1]; dose 20 mg/kg): 19.88% and 19.88^ns %
- Mean writhes (Swiss albino mice [1]; dose 20 mg/kg): 49.33 ± 0.87
- Mean writhes (Swiss albino mice [1]; dose 20 mg/kg, listed as Comp 1, 20 mg/kg): 49.3367
- % analgesic activity (writhing inhibition) (Swiss albino mice [1]; dose 25 mg/kg): 24.78%
- Mean writhes (Swiss albino mice [1]; dose 25 mg/kg): 46.67 ± 0.87
- Mean writhes (Swiss albino mice [1]; dose 25 mg/kg, listed as Comp 1, 25 mg/kg): 46.6667
- % analgesic activity (writhing inhibition) (Swiss albino mice [1]; dose 50 mg/kg): 62% and 61.90%
- Mean writhes (Swiss albino mice [1]; dose 50 mg/kg): 23.30 ± 0.62
- Mean writhes (Swiss albino mice [1]; dose 50 mg/kg, listed as Comp 1, 50 mg/kg): 23.3
- inhibition at 62.5 µg/mL (5-LOX): 59.4 ± 0.65%
- inhibition at 250 µg/mL (5-LOX): 66.9 ± 1.04%
- inhibition at 500 µg/mL (5-LOX): 71.8 ± 0.55%
- inhibition at 1000 µg/mL (5-LOX): 77 ± 1.49%
- Hot plate analysis (adrenergic), individual values (Swiss albino mice [2]; 30 Minutes): 4.43 and 5.1 and 6.1
- Hot plate analysis (adrenergic), individual values (Swiss albino mice [2]; 45 Minutes): 6.87 and 5.78 and 7.3
- Hot plate analysis (adrenergic), individual values (Swiss albino mice [2]; 15 minutes): 6.2 and 4.27 and 5.81
- Hot plate analysis (adrenergic), individual values (Swiss albino mice [2]; 60 minutes): 5.1 and 5.99 and 6.59
- Hot plate analysis (adrenergic), individual values (Swiss albino mice [2]; 90 minutes): 4.1 and 4.82 and 5.34

SMILES: O=C(CCc1ccc(O)cc1)c1c(O)cc(O)cc1O [Compound 2, 2-4-4-6-tetrahydroxy-dihydrochalcone]
- % edema volume inhibition (mean) (mice; 1st hour after carrageenan, listed as Comp 2): 36.72%
- % edema volume inhibition (mean) (mice; 2nd hour after carrageenan): 37.45%
- % edema volume inhibition (mean) (mice; 3rd hour after carrageenan): 39.6788%
- % edema volume inhibition (mean) (mice; 4th hour after carrageenan): 32.922%
- % edema volume inhibition (mean) (mice; 5th hour after carrageenan): 29.246%
- Paw edema percent inhibition, individual values (mice; hour 1, listed as Comp 2): 42.03% and 38.64% and 36.29% and 31.91% and 34.73%
- Paw edema, individual values (mice; hour 1, listed as Comp 2): 0.44 and 0.47 and 0.488 and 0.521 and 0.5
- Paw edema percent inhibition, individual values (mice; hour 2, listed as Comp 2): 38.57% and 37.62% and 36.26% and 39.35%
- Paw edema, individual values (mice; hour 2, listed as Comp 2): 0.454 and 0.461 and 0.471 and 0.45 and 0.457
- Paw edema percent inhibition, individual values (mice; hour 3, listed as Comp 2): 40.08% and 38.48% and 38.75% and 40.75% and 40.334%
- Paw edema, individual values (mice; hour 3, listed as Comp 2): 0.45 and 0.462 and 0.46 and 0.445 and 0.449
- Paw edema percent inhibition, individual values (mice; hour 4, listed as Comp 2): 32.11% and 31.19% and 31.85% and 32.63% and 36.83%
- Paw edema, individual values (mice; hour 4, listed as Comp 2): 0.518 and 0.525 and 0.52 and 0.514 and 0.482
- Paw edema percent inhibition, individual values (mice; hour 5, listed as Comp 2): 29.96% and 29.27% and 30.23% and 28.18% and 28.59%
- Paw edema, individual values (mice; hour 5, listed as Comp 2): 0.512 and 0.517 and 0.51 and 0.525 and 0.522
- Writhes, individual values (Swiss albino mice [1]; 10mg, listed as Comp 2): 59.2 and 60.82 and 60.05
- Writhes, individual values (Swiss albino mice [1]; 20mg, listed as Comp 2): 55.1 and 54.26 and 56.7
- Writhes, individual values (Swiss albino mice [1]; 25mg, listed as Comp 2): 49.8 and 50.8 and 49.1
- Writhes, individual values (Swiss albino mice [1]; 50mg, listed as Comp 2): 41.02 and 43.67 and 40.12
- % analgesic activity (writhing inhibition) (Swiss albino mice [1]; dose 10 mg/kg): 1.86^ns %
- % analgesic activity (writhing inhibition) (Swiss albino mice [1]; dose 10 mg/kg, listed as compound 2, 10 mg/kg): 01.86%
- Mean writhes (Swiss albino mice [1]; dose 10 mg/kg, writhes counted 5-30 min after acetic acid, 10 mg/kg): 60.02 ± 0.90
- Mean writhes (Swiss albino mice [1]; dose 10 mg/kg, writhes counted 5-30 min after acetic acid, listed as Comp 2, 10 mg/kg): 60.0233
- % analgesic activity (writhing inhibition) (Swiss albino mice [1]; dose 20 mg/kg): 9.49^ns %
- Mean writhes (Swiss albino mice [1]; dose 20 mg/kg): 55.35 ± 0.87
- Mean writhes (Swiss albino mice [1]; dose 20 mg/kg, listed as Comp 2, 20 mg/kg): 55.3533
- % analgesic activity (writhing inhibition) (Swiss albino mice [1]; dose 25 mg/kg): 18.41^* %
- Mean writhes (Swiss albino mice [1]; dose 25 mg/kg): 49.90 ± 0.20
- Mean writhes (Swiss albino mice [1]; dose 25 mg/kg, listed as Comp 2, 25 mg/kg): 49.9
- % analgesic activity (writhing inhibition) (Swiss albino mice [1]; dose 50 mg/kg): 31.98^*** %
- Mean writhes (Swiss albino mice [1]; dose 50 mg/kg): 41.60 ± 1.24
- Mean writhes (Swiss albino mice [1]; dose 50 mg/kg, listed as Comp 2, 50 mg/kg): 41.6033
- inhibition at 62.5 µg/mL (5-LOX): 21.1 ± 0.9%
- inhibition at 250 µg/mL (5-LOX): 31.1 ± 0.2%
- inhibition at 500 µg/mL (5-LOX): 36.7 ± 0.67%
- inhibition at 1000 µg/mL (5-LOX): 41.43 ± 0.38%
- Hot plate analysis (adrenergic), individual values (Swiss albino mice [2]; 30 Minutes): 3.19 and 3.88 and 3.2
- Hot plate analysis (adrenergic), individual values (Swiss albino mice [2]; 45 Minutes): 4.32 and 3.32 and 3.1
- Hot plate analysis (adrenergic), individual values (Swiss albino mice [2]; 15 minutes): 2.32 and 1.9 and 3.49
- Hot plate analysis (adrenergic), individual values (Swiss albino mice [2]; 60 minutes): 3.2 and 2.9 and 4.02
- Hot plate analysis (adrenergic), individual values (Swiss albino mice [2]; 90 minutes): 3.1 and 2.75 and 3.61
